Patent US20250122171A1, “Substituted Amine Compounds, Compositions and Methods of Use” (Deep Apple Therapeutics, Inc., priority 2023, published 2025)

Experiments:
Type in all cases: cell-based
[1] = tested on: LAD-2 cells; experiment: LAD2 Degranulation Assay (Protocol 1), β-hexosaminidase release; conditions: Homo sapiens, 1 μM Cortistatin-14, 30 minute preincubation, top concentration 3 μM
Protocol: LAD-2 cells were maintained at 37° C. with 5% CO2 and grown in complete StemPro-34 media supplemented with 1% L-Glutamate, 1% penicillin/streptomycin, and 250 ng/mL human SCF.
On the day of experiment, cells were collected by centrifugation and seeded in 384-well assay plates, at 4,000 cells per well in 10 μl freshly made assay buffer (10 mM HEPES, 130 mM NaCl, 5 mM KCl, 1.8 mM CaCl2), 1.0 mM MgCl2, 5.6 mM glucose, 0.1% BSA, pH=7.40). For dose-response assays, compounds solubilized in 100% DMSO at 30 mM were serially diluted (1:3) first in 100% DMSO, and 2 intermediate dilutions with assay buffer were used to establish a final top concentration of 3 μM (in assay plate). Final DMSO concentration was kept constant at 0.1% across plates for all assays. Cortistatin-14 at 30 mM stock concentration was solubilized in HBSS+0.1% BSA, stored at −20° C. in 5 μl aliquots and discarded after one freeze-thaw cycle. Final concentration of agonist used in both dose-response and single point assays was 1 μM, prepared in assay buffer.
Antagonist equilibrium was established with 30 minute preincubation, followed by no wash, direct addition, and stimulation of agonist for 30 minutes at 37° C. For detection of β-hexosaminidase activity, assay plates were centrifuged and 5 μl of cell-free supernatant from each assay well was transferred to a black-walled black-bottomed 384-well plate. Substrate solution (1 mM 4-Methylumbelliferyl N-acetyl-β-D-glucosaminide in citrate buffer, pH=4.5, 15 μl) was added to each well and plates were incubated for 1 hour at 37° C. The plate was read on an EnVision XCite plate reader for umbelliferone fluorescence intensity (λex=355 nm, λem=460 nm). Background-subtracted data was analyzed using either GraphPad Prism or a custom Python script to calculate IC50 using either Log[Antagonist] vs. response (4 parameter) nonlinear regression (dose-response assays).

[2] = target: T1, hERG channel (Homo sapiens, UniProt Q12809); experiment: hERG Safety Evaluation by Manual Patch-Clamp System; conditions: hERG-T-Rex 293 cells, whole cell patch-clamp at 35° C.
T1 construct: host or cells: hERG-T-Rex 293 (HEK 293), doxycycline-induced
T1 sequence (Q12809 whole entry): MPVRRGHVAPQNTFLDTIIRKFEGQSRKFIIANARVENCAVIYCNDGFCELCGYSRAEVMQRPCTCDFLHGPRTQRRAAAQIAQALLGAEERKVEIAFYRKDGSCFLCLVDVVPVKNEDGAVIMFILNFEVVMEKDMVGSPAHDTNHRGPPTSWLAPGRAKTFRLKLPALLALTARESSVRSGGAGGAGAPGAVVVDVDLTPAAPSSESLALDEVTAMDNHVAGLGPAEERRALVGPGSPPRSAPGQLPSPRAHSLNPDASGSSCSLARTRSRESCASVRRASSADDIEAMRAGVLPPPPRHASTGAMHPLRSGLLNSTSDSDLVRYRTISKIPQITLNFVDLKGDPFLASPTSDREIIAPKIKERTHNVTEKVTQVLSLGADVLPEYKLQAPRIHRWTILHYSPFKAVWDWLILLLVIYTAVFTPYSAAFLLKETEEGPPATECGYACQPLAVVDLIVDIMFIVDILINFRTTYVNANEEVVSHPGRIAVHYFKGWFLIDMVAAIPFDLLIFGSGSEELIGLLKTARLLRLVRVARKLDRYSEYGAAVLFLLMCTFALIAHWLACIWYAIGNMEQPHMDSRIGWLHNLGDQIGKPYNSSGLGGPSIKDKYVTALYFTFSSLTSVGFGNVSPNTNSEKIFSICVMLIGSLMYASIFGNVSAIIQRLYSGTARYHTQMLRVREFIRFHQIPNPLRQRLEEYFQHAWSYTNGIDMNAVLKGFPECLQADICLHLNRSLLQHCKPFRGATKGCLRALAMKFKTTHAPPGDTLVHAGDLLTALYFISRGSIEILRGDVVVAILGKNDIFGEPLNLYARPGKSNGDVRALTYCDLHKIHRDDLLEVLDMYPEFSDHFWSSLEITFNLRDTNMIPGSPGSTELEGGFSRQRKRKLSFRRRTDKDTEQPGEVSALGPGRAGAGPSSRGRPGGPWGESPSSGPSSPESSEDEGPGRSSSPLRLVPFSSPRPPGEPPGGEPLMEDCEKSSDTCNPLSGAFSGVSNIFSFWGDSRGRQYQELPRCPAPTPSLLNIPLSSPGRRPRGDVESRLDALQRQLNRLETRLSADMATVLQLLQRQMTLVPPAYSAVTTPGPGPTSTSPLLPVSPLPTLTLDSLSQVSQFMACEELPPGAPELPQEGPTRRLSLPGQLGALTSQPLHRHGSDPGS
Protocol: A stable BIEK 293 cell line with inducible hERG channel expression (hERG-T-Rex 293, Invitrogen cat #K1236) was cultured in medium containing 85% DMVEM, 10% dialyzed FBS, 0.1 mM NEAA, 25 mM HEPES, 100 U/mL Penicillin-Streptomycin, 5 μg/mL Blasticidin and 400 μg/mL Geneticin. Before the assay, cells were induced with doxycycline at 1 μg/mL for 48 hours. On the experiment day, the induced cells were resuspended and plated onto coverslips at 5×10^5 cells/per 3.5 cm cell culture dish prior to use and cultured in medium without Blasticidin and Geneticin.
Electrophysiology recordings were performed in extracellular solution (ECS) containing (in mM): 132 NaCl, 4 KCl, 3 CaCl2), 0.5 MgCl2, 11.1 D-(+) glucose, and 10 HEPES (pH adjusted to 7.35 with NaOH, osmolarity 285-295 mOsm). Recording pipets contained (in mM) 10 NaCl, 10 KCl, 110 KF, 10 EGTA, and 10 HEPES (pH adjusted to 7.2 with KOH, osmolarity 285-295 mOsm).
Test and positive control (dofetilide) compounds were solubilized in 100% DMSO at 10 mM or 75 mM, respectively. Intermediate dilutions of compounds were prepared by serial dilution in 100% DMSO, after which working solutions were prepared in ECS (final DMSO concentration=0.1-1% v/v for test compounds, and 0.1% for dofetilide). […]
Whole cell recordings of voltage-clamped cells were performed at 35° C., with all working solutions heated to 34° C. in a water bath before administration. Current recordings were collected at 20 kHz with a 10 kHz filter and were compensated for capacitance. Cells were clamped at −60 mV, and leak current was tested at −80 mV for 500 ms. The hERG current was elicited by depolarizing at +30 mV for 4.8 seconds and then the voltage was taken back to −50 mV for 5.2 seconds to remove the inactivation and observe the deactivating tail current. Recordings were continued for 120 seconds to assess current stability. Only stable cells with recording parameters above threshold were used in compound administration experiments. Vehicle control was applied to cells to establish baseline. […] For dose response testing, test compound was applied to the cells cumulatively from low to high concentrations. Dofetilide at concentration of 450 nM was also applied to each cell post-hERG current measurement at the highest concentration of test compound as the internal low control for normalization of percentage inhibition. Dofetilide (5 doses) response was performed as positive hERG inhibition control for each batch of cells.
The following criteria were used to determine data acceptability: 1) Initial seal resistance>1 GΩ; 2) Leak currents<50% of the control peak tail currents at any time; 3) Normal test pulse current waveform (e.g., hERG peak tail) current amplitude greater than prepulse current amplitude and the peak tail amplitude>250 pA; 4) Membrane resistance Rm>500 MΩ; 5) Access resistance (Ra)<15 MΩ; 6) Apparent run-down of peak current<2.5% per min. Percent current inhibition was calculated as (1−(Peak tail currentcompound−Peak tail currentpositive control)/(Peak tail currentBlank vehicle−Peak tail currentpositive control))×100. PatchMaster software was used to extract the peak current from the original data. The dose response curve of test compounds was plotted with % inhibition against the concentration of test compounds using Graphpad Prism 8.0, and the data fit to a sigmoid dose-response curve with a variable slope.

[3] = target: T2, human MRGPRX2 (Homo sapiens, UniProt Q96LB1); experiment: MRGPRX2 Activity Assay (IP-1 HTRF, antagonist mode); conditions: FlpIn TRex-MRGPRX2-HEK293 cells; versus 1 μM Cortistatin-14 agonist; 30 minutes preincubation
T2 construct: expressed in transfected cells; host or cells: FlpIn TRex HEK293 (TRex-MRGPRX2-HEK), doxycycline-induced
T2 sequence (Q96LB1 1-330): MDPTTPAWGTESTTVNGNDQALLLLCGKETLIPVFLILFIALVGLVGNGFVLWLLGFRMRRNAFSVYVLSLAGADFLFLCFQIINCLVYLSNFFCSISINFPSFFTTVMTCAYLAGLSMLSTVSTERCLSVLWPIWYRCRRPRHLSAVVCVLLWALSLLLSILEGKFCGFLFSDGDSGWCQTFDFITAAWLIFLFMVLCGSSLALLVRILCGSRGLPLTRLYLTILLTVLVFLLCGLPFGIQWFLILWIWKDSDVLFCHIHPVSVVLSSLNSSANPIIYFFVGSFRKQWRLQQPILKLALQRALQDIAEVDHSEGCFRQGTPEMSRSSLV
In short: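 Doxycycline-induced (100 ng/mL, 18-24 h) TRex HEK293 cells stably expressing human MRGPRX2, in HBSS/20 mM HEPES/0.1% BSA/10 mM LiCl. Compounds (top final 30 uM, 1% DMSO) preincubated 30 min, then agonist stimulation 1 h at 37° C without wash. IP-1 accumulation read by HTRF; IC50 from 4-parameter fit.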

[4] = tested on: LAD-2 cells; experiment: LAD2 Degranulation Assay (Protocol 2), β-hexosaminidase release; conditions: Homo sapiens
In short: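 After 18–24 h SCF withdrawal, 4,000 cells/well in HEPES buffer pH 7.40 got compound for 2 h (1:3 series from 3 μM top, or 250 nM single point; 0.1% DMSO), then 0.5 μM cortistatin-14 for 30 min at 37 °C. Supernatant β-hexosaminidase: 1 mM 4-MU-GlcNAc, pH 4.5, 1 h, 355/460 nm; 4-parameter IC50 or % control.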

C[C@@H](C(=O)Nc1cn(Cc2ccc(F)cc2F)cn1)N1CCC(F)(F)[C@@H](c2cc[n+]([O-])cc2)C1 (single isomer, unassigned) [Compound 1] was tested, and the IC50 [1] was 1940 nM, the “hERG Inhibition (%) @ 1 μM” value [2] was 10% and the “hERG Inhibition (%) @ 20 μM” value [2] was 35%. The IC50 [3] was 58 nM.

C[C@H](C(=O)Nc1cn(Cc2cc(F)cc(F)c2)cn1)N1CCC(F)(F)[C@@H](c2cc[n+]([O-])cc2)C1 (single isomer, unassigned) [Compound 5] was tested, and the IC50 [1] was 14 nM, the “hERG Inhibition (%) @ 1 μM” value [2] was 3% and the “hERG Inhibition (%) @ 20 μM” value [2] was 35%. It also gave an IC50 [3] of 9 nM.

In the case of C[C@@H](C(=O)Nc1nc2cc3c(cc2s1)OCO3)N1CCC(F)(F)[C@@H](c2cc[n+]([O-])cc2)C1 (single isomer, unassigned) [Compound 11], the IC50 [1] is reported as 12 nM, the “hERG Inhibition (%) @ 1 μM” value [2] is reported as 11% and the “hERG Inhibition (%) @ 20 μM” value [2] is reported as 62%. It also gave an IC50 [3] of 3.7 nM.

C[C@@H](C(=O)Nc1cn2c(n1)CC[C@H]2c1cc(F)cc(F)c1)N1CCC(F)(F)[C@@H](c2ccc(=O)[nH]c2)C1 (single isomer, unassigned) [Compound 494] was tested, and the “hERG Inhibition (%) @ 1 μM” value [2] was 9%, the “hERG Inhibition (%) @ 20 μM” value [2] was 54% and the IC50 [3] was 20 nM. The IC50 ([4]; 0.5 μM Cortistatin-14, 2 h preincubation, cells without SCF 18-24 hours, top concentration 3 μM) was 6.9 nM and the activity at 0.25 µM ([4]; single point 250 nM, 0.5 μM Cortistatin-14, % control β-hexosaminidase activity) was 13%.
